Columns and labels:
human iPSC lines = test: Monolayer cardiac differentiation of iPSCs into beating cardiomyocytes (serum-containing protocol, optimisation of GSK3 inhibitor dose and oxygen level); type: cell-based; details: single use, 20% O2
Description: CHIR99021 (GSK3 inhibitor, #1386, Lot #6 & #7, Axon MedChem) and BIO (GSK3 inhibitor IX, #361550, Lot #D00148116, Calbiochem) (Minami et al., Cell reports 2, 1448-1460(2012)), IWP-3 (Wnt inhibitor, #SML0533, Lot #102m4613V, Sigma-Aldrich) resolved in Dimethyl Sulfoxide (DMSO, #276855, Sigma-Aldrich) were used for monolayer differentiation of iPSCs plated on Geltrex in 6-well plate or 10 cm dish. To prepare differentiating culture media, only one freeze and thaw cycle was confirmed for all aliquots of small compounds CHIR99021 and BIO and recombinant human growth factors. Twice freeze and thaw cycle was confirmed for IWP-3 aliquots. For the differentiation protocol with serum-containing media, DF20/5 media was used for cardiac differentiation and culture: DMEM/F-12 (with GlutaMax I) containing 20% or 5% Hyclone FBS, 1% non-essential amino acid, P.S. and 0.1 mM bME. Additional D-glucose was added to only DF20 as high glucose media (final 4.5 g/l) to enhance mesoderm differentiation from Day 1 to Day 4. For BIO and CHIR treatment, media was changed everyday. For IWP-3 treatment, media was changed every other day. DF5 media was used for the maintenance of cardiomyocytes after differentiation (Day 11˜) and media was changed every other day. Changed media using DF20 with small compounds required ˜3 ml per well in 6-well and ˜15 ml per 10 cm dish every other day since adding 2-2.5 ml of fresh media to a well of 6-well plates was not sufficient for high confluence of cells during differentiation into cardiomyocytes, resulting in lower efficiency of cardiac differentiation. […] For the differentiation protocol without serum containing media, Iscove's Modified Dulbecco Media (IMDM, Sigma-Aldrich) with B27 supplement (-minus insulin version, Life Technologies) was used for mesoderm differentiation (Day 1 to Day 3) and IMDM media with B27 (regular version, Life Technologies) was used for further differentiation and maintenance (Day 4˜). […] For the comparison between different serum free monolayer cardiac differentiation protocols (FIG. 3), RPMI1640 media (Sigma-Aldrich) and Activin A and BMP4 (R & D Systems), B27 supplement (both regular & minus insulin version, Life Technologies), human albumin (Sigma) and L-ascorbic acid 2-phosphate (Sigma-Aldrich) were used to make the corresponding differentiation media. In case of using DMEM/F-12 media for serum-free protocol, all cells died during early stage of cardiac differentiation (data not shown). All images and movies were taken in the tissue culture room using TS100F-LED microscope operated by Nikon NIS-Elements with objectives (4×, CFI Plan Fluor DL, NA 0.13; 10×, CFI Achromat ADL, NA0.25; 20×, CFI Achromat LWD ADL, NA 0.4, Nikon). Antibodies to sarcomeric alpha-actinin (clone #EA-53, Sigma-Aldrich) were used for immunocytochemistry of human cardiomyocytes (3-4 weeks later after cardiac differentiation). The cell size was analyzed blindly by E. Uche-Anya using Fiji software (FIG. 6). FACS analyses were performed in Columbia Center for Translational Immunology (CCTI) using a BD FACS Calibur using control and patient cardiomyocytes at day 19. Standard protocol for FACS was used first with 0.5% saponin (Sigma-Aldrich) for permeabilization at blocking step and next with sarcomeric alpha-actinin antibody (Sigma-Aldrich, clone #EA-53, 1/200 dilution) or cardiac troponin T (clone #13-11, Thermo Scientific, 1/500 dilution) and goat anti-mouse Alexa Fluor 488 secondary antibody (Life Technologies, 1/500) in FACS buffer (0.1% saponin, 2% FBS and 2 mM EDTA in Hanks buffer in HEPES, HBSS). The FACS data analyses were blindly performed by J. Feng. The identical cell samples were also used before fixation, for RNA/cDNA preparation and gene expression profiling using qPCR. Dimethyl Sulfoxide (DMSO) quality is critical to get reproducible results using small compounds, especially CHIR99021 (CHIR, #1386, lot #6 & #7, Axon MedChem). DMSO should be kept from ambient air. […]

LQTS cardiomyocytes = test: Dual optical recording of action potentials (ArcLight) and calcium handling (R-GECO1) in LQTS (Timothy syndrome) iPSC-derived cardiomyocytes; type: cell-based, human
Protocol: Plasmids of R-GECO1 (Addgene #32462) (Zhao et al., 2011) and ArcLight (Addgene #36857) (Jin et al., 2012) were used as template to amplify the cDNA using Phusion polymerase (Thermo Scientific) with primer sets that allowed us to add restriction enzyme site EcoRI and Kozak sequence before the start codon (without nuclear localization signal for R-GECO) and another site XhoI after the stop codon. These PCR products were subcloned into lentiviral vector that was prepared from LV-SD-Cre (Addgene, #12105, no longer available currently) digested with EcoRI and XhoI. XL-10 Gold competent cells (Agilent) transformed with these LV-SD vectors were inoculated at 24-30° C. The purified LV-SD vectors were transfected together with pCMV-dR8.2 dvpr and pCMV-VSV-G (Addgene #8455 & 8454) as follow: HEK293T cells that were plated at 5×10^5 cell/ml (2 ml per well) one day before were transfected with total 3.4 μg per well (ratio, LV-SD:dR8.2:VSV-G=8:8:1) and LF-2K (8.0 μl per well) in a 6-well plate. The next day the media was changed. Two days after transfection, culture media was harvested (again fresh media was added to transfected HEK 293T cells) and filtered using 0.45 μm PES filter (VWR) and then directly added to wells containing monolayer cardiomyocytes (at 2-3 weeks after inducing cardiac differentiation). No polybrene was used for viral infection. Seventy-two hours after transfection, the culture media was again collected and used as secondary infection. The next day media was changed to DF5 media for infected cardiomyocytes. In case of serum-free condition, Lenti-X concentrator (TaKaRa/Clontech) was used for media change, following the manufacture's instruction. Three to five days after the secondary infection, monolayer cardiomyocytes were transferred to 35 mm glass bottom culture dishes (7 mm diameter, No. 1.5 glass) coated with Geltrex. Nikon Ti-U epi-fluorescent microscope connected to EMCDD Digital Monochrome camera (Evolve, EVO-512-M-FW-16-AC, 512×512, Photometrics) was used with LED light source (Lumencore Spectra X 6 line LED system, with Chroma excitation mounted filters, ET395/25x, ET470/30, ET550/15x, ET640/30x;) with dichroic mirror and emission filter (dichroic mirror, D/F/Cy3/Cy5pc; emission, ET430/36 513/44 595/41 719/105) operated by MetaFlour (Molecular Devices, acquisition: exposure time, 20 ms; gain 3 (6×); transfer speed, 5 MHz, Image size: 512×512; binning, 1.0). Temperature of the bath solution was maintained at approximately 35° C. using a digital temperature controller (TC-344B, Warner Instruments) for the duration of the experiment. Nikon objective lens 40× (CF1 S Fluor, NA 0.90) for cell clusters and 60× (CFI Plan Apo Lambda H, NA 1.40) for single cells were used to capture two fluorescent signals as R-GECO1 (illumination control. 10 in 0-255, cy3) and ArcLight (150 in 0-255, FITC, 4 or 8 frames per sec). Isoproterenol (10 μM, Sigma Aldrich) and R-roscovitine (0.5 and 5 μM) were used for fluorescent imaging. The effect of serum concentration on the imaging using ArcLight and R-GECO1 in control and patient cells was not observed at approximately 35° C. […] Daily imaging in cardiomyocytes infected at day 15 was conducted for 18 days (day 23-40). Additional recordings were performed at day 90 to examine low long ArcLight and R-GECO1 signals are available.
A dual optical imaging system using two genetically encoded indicators, ArcLight for voltage and R-GECO1 for calcium transients, has been developed to efficiently phenotype the patient specific iPSC-derived cardiomyocytes derived from the serum containing protocol (Song, et al. Stem Cells Transl Med. 4(5):468-75 (2015)). […] Those phenotypes of Timothy syndrome patient iPSCs derived cardiomyocytes can be rescued by 5 μM Roscovitine treatment (FIGS. 2B-2C and FIG. 5).

[1] = system: control (Ctrl) cardiomyocytes; test: Dual optical recording of action potentials (ArcLight) and calcium handling (R-GECO1) in control iPSC-derived cardiomyocytes; type: cell-based, human; details: 5 μM, 10 min
Protocol: Plasmids of R-GECO1 (Addgene #32462) (Zhao et al., 2011) and ArcLight (Addgene #36857) (Jin et al., 2012) were used as template to amplify the cDNA using Phusion polymerase (Thermo Scientific) with primer sets that allowed us to add restriction enzyme site EcoRI and Kozak sequence before the start codon (without nuclear localization signal for R-GECO) and another site XhoI after the stop codon. These PCR products were subcloned into lentiviral vector that was prepared from LV-SD-Cre (Addgene, #12105, no longer available currently) digested with EcoRI and XhoI. XL-10 Gold competent cells (Agilent) transformed with these LV-SD vectors were inoculated at 24-30° C. The purified LV-SD vectors were transfected together with pCMV-dR8.2 dvpr and pCMV-VSV-G (Addgene #8455 & 8454) as follow: HEK293T cells that were plated at 5×10^5 cell/ml (2 ml per well) one day before were transfected with total 3.4 μg per well (ratio, LV-SD:dR8.2:VSV-G=8:8:1) and LF-2K (8.0 μl per well) in a 6-well plate. The next day the media was changed. Two days after transfection, culture media was harvested (again fresh media was added to transfected HEK 293T cells) and filtered using 0.45 μm PES filter (VWR) and then directly added to wells containing monolayer cardiomyocytes (at 2-3 weeks after inducing cardiac differentiation). No polybrene was used for viral infection. […]

[2] = monolayer of LQTS cardiomyocytes, serum-containing protocol (FIG. 5D)

## O=C1Nc2cc(Br)ccc2/C1=C1/Nc2ccccc2/C1=N\O [BIO, (2′ Z,3′ £)-6-Bromoindirubin-3′-oxime]
Human iPSC lines; BIO 1 μM
  beating cells: provided beating cardiomyocytes and Yes
Human iPSC lines; BIO 2 μM
  beating cells: Yes
  beating cells, where in the well: only around the edge of well
Human iPSC lines; BIO 4 μM
  beating cells: No
Human iPSC lines; BIO 8 μM
  beating cells: No

## Cc1c[nH]c(-c2cnc(NCCNc3ccc(C#N)cn3)nc2-c2ccc(Cl)cc2Cl)n1 [CHIR]
Human iPSC lines; CHIR 5 μM
  beating cells: provided beating cardiomyocytes and Yes
  beating cells, where in the well: only around the center of well
Human iPSC lines; CHIR 10 μM
  beating cells: No
Human iPSC lines; CHIR 15 μM
  beating cells: No
Human iPSC lines; CHIR 20 μM
  beating cells: No

## CC[C@H](CO)Nc1nc(NCc2ccccc2)c2ncn(C(C)C)c2n1 [Roscovitine]
LQTS cardiomyocytes
  phenotypes in action potentials, channel inactivation and calcium handling in Timothy syndrome cardiomyocytes: rescued the phenotypes
LQTS cardiomyocytes; 5 μM, 10 min, LQTS cardiomyocytes, serum-free condition (FIG. 5H)
  APD90: positive effects
LQTS cardiomyocytes; 5 μM, 10 min, LQTS cardiomyocytes, serum-free condition (FIG. 5I)
  number of spontaneous calcium transients: positive effects
LQTS cardiomyocytes; 5 μM, cardiomyocytes derived using the serum-free protocol
  phenotypes of Timothy syndrome cardiomyocytes: rescued the phenotypes
LQTS cardiomyocytes; 5 μM, cardiomyocytes from the serum-containing protocol
  phenotypes (prolonged action potentials and abnormal calcium handling) of Timothy syndrome cardiomyocytes: rescued
LQTS cardiomyocytes; 5 μM, single LQTS CMs, before, during and after treatment (FIG. 2B)
  irregular calcium handling and electrical activities: prevented
LQTS cardiomyocytes; monolayer of LQTS cardiomyocytes, serum-containing protocol (FIG. 5C)
  action potential (APD90, 90% from peak): shortened
LQTS cardiomyocytes; [2]
  beating rate: increased
  number of spontaneous calcium transients: increased
LQTS cardiomyocytes; single LQTS cardiomyocytes, n=12, 4 lines from two patients (FIG. 2C)
  prolonged action potentials: rescued
[1]; serum-free protocol (FIG. 5F)
  APD90: no effect
[1]; serum-free protocol (FIG. 5G)
  number of spontaneous calcium transients: no effect
